Measured values as given in patent US11066396B2 (priority 2016, dated 2021).

Legend:
HDAC1 = HDAC1 (Homo sapiens (Human), UniProt Q13547); conditions: read-out: HDAC1 IC50
HDAC5 = HDAC5 (Homo sapiens (Human), UniProt Q9UQL6); conditions: read-out: HDAC5 IC50
HDAC8 = HDAC8 (Homo sapiens (Human), UniProt Q9BY41); conditions: read-out: HDAC8 IC50
HDAC8, sequence (Q9BY41 whole entry): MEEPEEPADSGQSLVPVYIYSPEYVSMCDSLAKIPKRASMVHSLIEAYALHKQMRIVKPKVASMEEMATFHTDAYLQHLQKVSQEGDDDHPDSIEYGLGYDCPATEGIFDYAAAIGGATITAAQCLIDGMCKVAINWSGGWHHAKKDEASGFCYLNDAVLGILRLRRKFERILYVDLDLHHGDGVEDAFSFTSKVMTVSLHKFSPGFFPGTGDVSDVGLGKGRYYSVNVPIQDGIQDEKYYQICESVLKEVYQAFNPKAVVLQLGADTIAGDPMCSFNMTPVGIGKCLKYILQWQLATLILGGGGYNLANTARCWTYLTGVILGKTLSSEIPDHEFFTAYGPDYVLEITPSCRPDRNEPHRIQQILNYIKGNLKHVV

HDAC1, sequence (Q13547 whole entry): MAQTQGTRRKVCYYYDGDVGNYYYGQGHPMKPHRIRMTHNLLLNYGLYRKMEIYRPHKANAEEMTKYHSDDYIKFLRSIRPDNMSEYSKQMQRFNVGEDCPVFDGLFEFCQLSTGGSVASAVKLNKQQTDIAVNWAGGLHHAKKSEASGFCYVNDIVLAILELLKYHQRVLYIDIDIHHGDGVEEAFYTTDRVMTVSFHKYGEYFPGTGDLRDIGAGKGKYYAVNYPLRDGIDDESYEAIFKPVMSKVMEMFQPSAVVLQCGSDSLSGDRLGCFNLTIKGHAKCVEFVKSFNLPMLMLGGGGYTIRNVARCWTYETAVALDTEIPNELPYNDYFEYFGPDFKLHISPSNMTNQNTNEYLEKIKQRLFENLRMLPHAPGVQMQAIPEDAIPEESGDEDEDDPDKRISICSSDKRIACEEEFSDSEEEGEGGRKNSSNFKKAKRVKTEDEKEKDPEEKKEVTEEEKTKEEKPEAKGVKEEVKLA
HDAC5, sequence (Q9UQL6 656-1122): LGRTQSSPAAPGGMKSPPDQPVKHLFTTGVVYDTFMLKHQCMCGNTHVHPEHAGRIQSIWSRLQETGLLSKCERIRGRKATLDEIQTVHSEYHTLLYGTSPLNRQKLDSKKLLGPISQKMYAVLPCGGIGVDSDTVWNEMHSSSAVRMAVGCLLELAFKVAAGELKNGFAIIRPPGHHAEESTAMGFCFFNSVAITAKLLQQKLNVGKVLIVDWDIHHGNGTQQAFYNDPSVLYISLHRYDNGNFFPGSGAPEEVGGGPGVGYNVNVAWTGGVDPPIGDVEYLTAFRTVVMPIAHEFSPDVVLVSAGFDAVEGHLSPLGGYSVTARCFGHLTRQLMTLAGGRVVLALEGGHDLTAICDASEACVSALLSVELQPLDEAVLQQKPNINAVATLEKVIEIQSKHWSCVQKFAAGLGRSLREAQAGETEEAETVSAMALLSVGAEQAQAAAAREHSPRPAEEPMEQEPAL

SMILES | IC50 (HDAC1) | IC50 (HDAC5) | IC50 (HDAC8)
O=C(C1CCS(=O)(=O)CC1)N(Cc1ccc(-c2noc(C(F)(F)F)n2)cn1)c1cccc(F)c1 [Example 55, N-(3-fluorophenyl)-N-((5-(5-(trifluoromethyl)-1,2,4-oxadiazol-3-yl)pyridin-2-yl)methyl)tetrahydro-2H-thiopyran-4-carboxamide 1,1-dioxide] | 250 nM | 1100 nM | 2300 nM
O=C(C1CCOCC1)N(Cc1ccc(-c2noc(C(F)(F)F)n2)cn1)c1cccc(F)c1 [Example 60, N-(3-fluorophenyl)-N-((5-(5-(trifluoromethyl)-1,2,4-oxadiazol-3-yl)pyridin-2-yl)methyl)tetrahydro-2H-pyran-4-carboxamide] | 230 nM | 650 nM | 2100 nM
O=C(Cn1cncn1)N(Cc1ccc(-c2noc(C(F)(F)F)n2)cc1)c1cccc(C(F)(F)F)c1 [Example 68, 2-(1H-1,2,4-triazol-1-yl)-N-(4-(5-(trifluoromethyl)-1,2,4-oxadiazol-3-yl)benzyl)-N-(3-(trifluoromethyl)phenyl)acetamide] | 690 nM | 500 nM | 2000 nM
CCc1nnc([C@@H]2CCC(=O)N2c2cc(F)c(-c3noc(C(F)(F)F)n3)cc2F)o1 [Example 105, (S)-1-(2,5-difluoro-4-(5-(trifluoromethyl)-1,2,4-oxadiazol-3-yl)phenyl)-5-(5-ethyl-1,3,4-oxadiazol-2-yl)pyrrolidin-2-one] | 710 nM | 18 nM | 6600 nM
Cn1c([C@@H]2CCC(=O)N2c2ccc(-c3noc(C(F)(F)F)n3)cc2)nc2ccccc21 [Example 108, (S)-5-(1-methyl-1H-benzo[d]imidazol-2-yl)-1-(4-(5-(trifluoromethyl)-1,2,4-oxadiazol-3-yl)phenyl)pyrrolidin-2-one] | 2000 nM | 120 nM | 2900 nM
O=C1CCC(c2ccccc2Cl)N1c1ccc(-c2noc(C(F)(F)F)n2)cc1F (stereo not drawn) [Example 117, 5-(2-chlorophenyl)-1-(2-fluoro-4-(5-(trifluoromethyl)-1,2,4-oxadiazol-3-yl)phenyl)pyrrolidin-2-one] | 1800 nM | 140 nM | 3100 nM
Cc1noc([C@@H]2CCC(=O)N2c2ccc(-c3noc(C(F)(F)F)n3)cc2)n1 [Example 122, (S)-5-(3-methyl-1,2,4-oxadiazol-5-yl)-1-(4-(5-(trifluoromethyl)-1,2,4-oxadiazol-3-yl)phenyl)pyrrolidin-2-one] | 730 nM | 21 nM | 1400 nM
CC(C)(C)OC(=O)[C@@H]1CCC(=O)N1c1ccc(-c2noc(C(F)(F)F)n2)c(F)c1F [Example 124, tert-butyl (S)-1-(2,3-difluoro-4-(5-(trifluoromethyl)-1,2,4-oxadiazol-3-yl)phenyl)-5-oxopyrrolidine-2-carboxylate] | 1300 nM | 17 nM | 7400 nM
O=C1COC[C@@H](c2ccccc2)N1c1ccc(-c2noc(C(F)(F)F)n2)cn1 [Example 126, (R)-5-phenyl-4-(5-(5-(trifluoromethyl)-1,2,4-oxadiazol-3-yl)pyridin-2-yl)morpholin-3-one] | 1400 nM | 190 nM | 5000 nM
CC(C)(C)OC(=O)N1C[C@@H](c2cc(F)cc(F)c2)N(c2ccc(-c3noc(C(F)(F)F)n3)cn2)C(=O)C1C1CCOCC1 (stereo partly drawn) [Example 127, tert-butyl (5R)-5-(3,5-difluorophenyl)-3-oxo-2-(tetrahydro-2H-pyran-4-yl)-4-(5-(5-(trifluoromethyl)-1,2,4-oxadiazol-3-yl)pyridin-2-yl)piperazine-1-carboxylate] | 7300 nM | 360 nM | > 45000 nM
FC(F)(F)c1nc(-c2ccc(N3CCOCC3c3ccccc3Cl)nc2)no1 (stereo not drawn) [Example 130, 3-(2-chlorophenyl)-4-(5-(5-(trifluoromethyl)-1,2,4-oxadiazol-3-yl)pyridin-2-yl)morpholine] | 480 nM | 74 nM | 1500 nM
FC(F)(F)c1nc(-c2ccc(N3CCOCC3c3cccnc3)nc2)no1 (stereo not drawn) [Example 133, 3-(pyridin-3-yl)-4-(5-(5-(trifluoromethyl)-1,2,4-oxadiazol-3-yl)pyridin-2-yl)morpholine] | 160 nM | 31 nM | 350 nM
Cc1noc([C@@H]2CCCCN2c2ccc(-c3noc(C(F)(F)F)n3)cn2)n1 [Example 140, (S)-3-methyl-5-(1-(5-(5-(trifluoromethyl)-1,2,4-oxadiazol-3-yl)pyridin-2-yl)piperidin-2-yl)-1,2,4-oxadiazole] | 930 nM | 150 nM | 1000 nM
O=C1COC[C@@H](c2ccccc2)N1c1cc(F)c(-c2noc(C(F)(F)F)n2)cc1F [Example 160, (R)-4-(2,5-difluoro-4-(5-(trifluoromethyl)-1,2,4-oxadiazol-3-yl)phenyl)-5-phenylmorpholin-3-one] | 1300 nM | 3 nM | 12000 nM
FC(F)(F)c1nc(-c2ccnc(OCCc3cccc4cn[nH]c34)c2)no1 [Example 167] | 2500 nM | 900 nM | 480 nM
Fc1cc(COc2ccccc2)ccc1-c1noc(C(F)(F)F)n1 [Example 172, 3-(2-Fluoro-4-(phenoxymethyl)phenyl)-5-(trifluoromethyl)-1,2,4-oxadiazole] | 45000 nM | 760 nM | 45000 nM
O=C(C1CCS(=O)(=O)CC1)N(Cc1ccc(-c2noc(C(F)(F)F)n2)nn1)c1cccc(C(F)(F)F)c1 [Example 173, N-((6-(5-(Trifluoromethyl)-1,2,4-oxadiazol-3-yl)pyridazin-3-yl)methyl)-N′-(3-(trifluoromethyl)phenyl)tetrahydro-2H-thiopyran-4-carboxamide 1,1-dioxide] | 1100 nM | 8300 nM | 6300 nM
O=C(NC(Cc1ccc(-c2noc(C(F)(F)F)n2)cn1)c1cccc(C(F)(F)F)c1)C(F)(F)F (stereo not drawn) [Example 176, 2,2,2-Trifluoro-N-(2-(5-(5-(trifluoromethyl)-1,2,4-oxadiazol-3-yl)pyridin-2-yl)-1-(3-(trifluoromethyl)phenyl)ethyl)acetamide] | 1300 nM | 320 nM | 45000 nM
CC(=O)NC(Cc1ccc(-c2noc(C(F)(F)F)n2)cn1)c1cccc(C(F)(F)F)c1 (stereo not drawn) [Example 177, N-(2-(5-(5-(Trifluoromethyl)-1,2,4-oxadiazol-3-yl)pyridin-2-yl)-1-(3-(trifluoromethyl)phenyl)ethyl)acetamide] | 530 nM | 420 nM | 4500 nM
CS(=O)(=O)NC(Cc1ccc(-c2noc(C(F)(F)F)n2)cn1)c1cccc(C(F)(F)F)c1 (stereo not drawn) [Example 178, N-(2-(5-(5-(Trifluoromethyl)-1,2,4-oxadiazol-3-yl)pyridin-2-yl)-1-(3-(trifluoromethyl)phenyl)ethyl)methanesulfonamide] | 410 nM | 320 nM | 3700 nM
Cc1nc(Cl)cnc1COc1ccc(-c2noc(C(F)(F)F)n2)cn1 [Example 184, 3-(6-((5-Chloro-3-methylpyrazin-2-yl)methoxy)pyridin-3-yl)-5-(trifluoromethyl)-1,2,4-oxadiazole] | 2300 nM | 1100 nM | 2700 nM
Cc1cc(C)nc(COc2nccc(-c3noc(C(F)(F)F)n3)c2Cl)n1 [Example 186, 3-(3-Chloro-2-((4,6-dimethylpyrimidin-2-yl)methoxy)pyridin-4-yl)-5-(trifluoromethyl)-1,2,4-oxadiazole] | 8100 nM | 850 nM | 3900 nM
Fc1c(-c2noc(C(F)(F)F)n2)ccnc1OCc1nc(C2CC2)no1 [Example 187, 3-Cyclopropyl-5-(((3-fluoro-4-(5-(trifluoromethyl)-1,2,4-oxadiazol-3-yl)pyridin-2-yl)oxy)methyl)-1,2,4-oxadiazole] | 1500 nM | 220 nM | 1500 nM
O=C(COc1cc(-c2noc(C(F)(F)F)n2)ccn1)N1CCOCC1 [Example 190, 1-Morpholino-2-((4-(5-(trifluoromethyl)-1,2,4-oxadiazol-3-yl)pyridin-2-yl)oxy)ethan-1-one] | 2200 nM | 550 nM | 1100 nM
O=C(NCc1ccc(-c2noc(C(F)(F)F)n2)cc1)C1CCCC1 [Example 191, N-(4-(5-(Trifluoromethyl)-1,2,4-oxadiazol-3-yl)benzyl)cyclopentanecarboxamide] | 2200 nM | 940 nM | 2900 nM
CC(C)NC(=O)OCc1ccc(-c2noc(C(F)(F)F)n2)cn1 [Example 192, (5-(5-(Trifluoromethyl)-1,2,4-oxadiazol-3-yl)pyridin-2-yl)methyl isopropylcarbamate] | 660 nM | 640 nM | 1800 nM
CNC(=O)OCc1ccc(-c2noc(C(F)(F)F)n2)cn1 [Example 194, {5-[5-(trifluoromethyl)-1,2,4-oxadiazol-3-yl]pyridin-2-yl}methyl methylcarbamate] | 1700 nM | 610 nM | 1300 nM
O=C(NC1CCOCC1)OCc1ccc(-c2noc(C(F)(F)F)n2)cn1 [Example 195, {5-[5-(trifluoromethyl)-1,2,4-oxadiazol-3-yl]pyridin-2-yl}methyl oxan-4-ylcarbamate] | 780 nM | 660 nM | 1600 nM
CN(C(=O)[C@@H]1COCC(=O)N1c1ccc(-c2noc(C(F)(F)F)n2)c(F)c1)C(C)(C)C [Example 196, (3S)-N-tert-butyl-4-{3-fluoro-4-[5-(trifluoromethyl)-1,2,4-oxadiazol-3-yl]phenyl}-N-methyl-5-oxomorpholine-3-carboxamide] | 6900 nM | 300 nM | 6300 nM
O=C(OCCOCCCl)[C@@H]1CCC(=O)N1c1ccc(-c2noc(C(F)(F)F)n2)c(F)c1 [Example 197, 2-(2-chloroethoxy)ethyl 1-{3-fluoro-4-[5-(trifluoromethyl)-1,2,4-oxadiazol-3-yl]phenyl}-5-oxo-L-prolinate] | 1200 nM | 50 nM | 110 nM
